One test relates to S. aureus ATCC 29213. The test is described as follows: Agar Dilution susceptibility method (Example 5). The test is classed as cell-based, Staphylococcus aureus. As for the experimental part: The Agar Dilution susceptibility method was used to test the effectiveness of the antimicrobial composition of Example 1. The organisms used were S. aureus ATCC 29213, E. coli ATCC 25922, S. typhimurium ATCC 14028, K. pneumoniae ATCC 10031, P. aeruginosa ATCC 27853, C. albicans ATCC 10231, and M. smegmatis ATCC 14468. The organisms were maintained on Tryptic Soy Agar (TSA) slants. For each week, the organisms were cultured in 10 ml of Tryptic Soy Broth (TSB). After incubation at 37° C. for 17 hours (48 hours for M. smegmatis), the organism suspensions were diluted with 10 ml of sterile saline as shown in Table 4. The mold Aspergillus niger was sustained on a Sabouraud Dextrose Agar slant. The sample was then cultured in 10 ml of Tryptic Soy Broth and incubated for 7 days at 22° C. The mold was then diluted in 0.1% Tween 80 in saline. The diluted bacteria and yeast organisms were then inoculated onto the prepared sample plates with a 1 μl loop. The mold Aspergillus niger was added to prepared sample tubes with a 100 μl pipette.
Phenyloxyethanol (PE), phenylethyl alcohol (PEA) and methyl/propylparabens (MP) in a ratio of 5:4 were initially screened at their commonly recommended effective concentrations of 0.3% v/v (3 μl/ml); 1% v/v (10 μl/ml); and 0.18% w/v (1 mg methyl and 0.8 mg propylparaben/ml), respectively. The antimicrobial agent was used at an initial concentration of 0.15% v/v (1.5 μl/ml).
The sample plates for the bacteria and yeast were prepared as follows: • Prepare 10 ml tubes of TSA and allow to cool to 50° C., • Add the calculated amount of the preservative or antimicrobial agent to 100 μl dimethylsulfoxide (DMSO) to achieve the specified concentration per ml TSA when 100 μl of the DMSO solution are added to a test tube containing 10 ml of TSA, • Vortex to homogenize the mixture in TSA, • Pour TSA and the preservative or antimicrobial agent into a properly labeled Petri dish, • Allow to cool overnight at room temperature. […]
The results for the bacteria and yeast were scored in relation to the growth present on the positive control plate. […]
In general terms: In agar dilution, organisms are placed on agar that contains the substance at set levels.

Test [1] has as its system Aspergillus niger ATCC 16404. The test is described as follows: Macro-dilution broth susceptibility method (Example 6). The test is classed as cell-based. As to the method:
The mold Aspergillus niger ATCC 16404 was selected for the antifungal testing and maintained on Sabouraud Dextrose Agar. Aspergillus niger is a mold that commonly causes opportunistic infections in humans. Spores are prevalent in soil and on decaying organic matter. Aspergillus niger is also a common cause of contamination in products. The organism was cultured in 10 ml of Tryptic Soy Broth for 7 days at 22° C. After incubation, 1 ml of mold culture was added to 10 ml of 0.1% Tween 80 solution in sterile saline to achieve a spore concentration of 0.5 McFarland (1×10^8 spores/ml). This concentration was determined by visual comparison to a 0.5 McFarland standard. […]
The final concentration of mold spores in each sample was 1×10^4-1×10^5 spores/ml. The prepared tubes of TSB were incubated at 37° C. for 5 days, and the results recorded at 3 and 5 days. […]
The results were scored in relation to the growth present in the negative control tube. […] Partial activity (P) was recorded when the sample tube of TSB was less turbid than the control tube, and now growth (I) was recorded when there was total inhibition and the broth in the tube appeared clear. When a result of (I) was scored, the MIC was established by performing the appropriate dilutions.

Experimental findings from US7429396B2, “Antifungal composition, its fungicidal effect on pathogenic dermatophytes, and process for inhibiting growth of fungi” (Bio-Botanica, Inc., priority 2003, dated 2008) are described below.

In the case of `OCCc1ccccc1` [Phenylethyl Alcohol], the “Minimum Inhibitory Concentration (MIC) (sample/ml of agar or broth)” value with S. aureus ATCC 29213 stood at 10.0 μl/ml. Moreover, the “effect on S. aureus” value in the test with S. aureus ATCC 29213 (0.3 wt %) is recorded as “no effect”. The growth score entry (in the test on S. aureus ATCC 29213 (6.0 μl/ml); in test [1] (2.5 μl/ml)) was “I” in each case. Besides, in test [1] (macro-dilution broth, Example 6), the “Minimum Inhibitory Concentration (MIC)” value was found to be 2.5 μl/ml.
